# Reference: PubChem BioAssay (NCI)
# Where “and” joins values, the source holds several entries; their conditions need not be identical. Identical values can stand only once.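 Five concentrations, 48 hours, 96-well plates. GI50 marks 50% less growth. The concentration for full growth arrest is given as TGI.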
# Tests used:
# Test in all cases: growth of human tumour cells (NCI), 48 h
# [1] = tested on: 786-0 renal
# [2] = tested on: EKVX NSCLC
# [3] = tested on: HCC-2998 colon
# [4] = tested on: HL-60(TB) leukemia
# [5] = tested on: HOP-92 NSCLC
# [6] = tested on: MALME-3M melanoma
# [7] = tested on: MOLT-4 leukemia
# [8] = tested on: OVCAR-8 ovarian
# [9] = tested on: SR leukemia
# [10] = tested on: UACC-62 melanoma
SMILES,GI50 [1],TGI [1],GI50 [2],TGI [2],GI50 [3],TGI [3],GI50 [4],TGI [4],GI50 [5],TGI [5],GI50 [6],TGI [6],GI50 [7],TGI [7],GI50 [8],TGI [8],GI50 [9],TGI [9],GI50 [10],TGI [10]
COc1ccc2c(c1)OC(N(C(C)=O)C(C)=O)=C(C#N)C2c1ccc(F)cc1 (stereo not drawn),3.52 µM,> 100 µM,6.37 µM,> 100 µM,4.93 µM,> 100 µM,0.496 µM,2.53 µM,10.9 µM,90.4 µM,21.6 µM,> 100 µM,2.66 µM,> 100 µM,3.92 µM,> 100 µM,0.653 µM,> 100 µM,0.632 µM,> 100 µM
CC(CNC(Cc1ccccc1)c1ccccc1)NC(Cc1ccccc1)c1ccccc1 (stereo not drawn),1.67 µM,3.36 µM,2.47 µM,9.16 µM,2.03 µM,4.45 µM,2 µM,4.51 µM,1.83 µM,4.09 µM,1.68 µM,3.36 µM,2.06 µM,6.03 µM,2.6 µM,6.17 µM,1.84 µM,4.49 µM,1.8 µM,3.8 µM
C[C@H]1[C@H](C)CC[C@]2(C(=O)O)CC[C@]3(C)C(=CC[C@@H]4[C@@]5(C)C/C(=C/c6cccnc6)[C@H](O)C(C)(C)[C@@H]5CC[C@]43C)[C@H]12,25.9 µM,> 100 µM,13.3 µM,87.6 µM,15.7 µM,43.5 µM,9.83 µM,32.6 µM,13.8 µM,67.7 µM,18.3 µM,51.2 µM,8.74 µM,58.2 µM,20.5 µM,> 100 µM,20.7 µM,82.8 µM,11.7 µM,35 µM
CC(=O)O[C@@H]1CC2C(C)(C)CCCC2(C)C2=C1C(=O)C(C(C)C)=CC2=O (stereo partly drawn),0.781 µM,6.95 µM,1.02 µM,6.88 µM,0.405 µM,1.62 µM,0.744 µM,4.28 µM,0.652 µM,2.1 µM,0.784 µM,4.8 µM,1.13 µM,> 100 µM,2.64 µM,15.9 µM,0.653 µM,> 100 µM,0.458 µM,2.07 µM
CCCCCCCCCCCCCCCC(=O)OCC1OC(n2c(O)c(N=NC(N)=S)c3ccc([N+](=O)[O-])cc32)C(OC(C)=O)C1OC(C)=O (stereo not drawn),–,> 100 µM,–,> 100 µM,–,> 100 µM,–,> 100 µM,–,> 100 µM,–,> 100 µM,–,> 100 µM,–,> 100 µM,–,> 100 µM,–,> 100 µM
O=C(CN1CCN(c2ccccc2)CC1)N1CCc2c([nH]c3ccccc23)C1c1cccnc1 (stereo not drawn),–,50.8 µM,–,> 100 µM,–,> 100 µM,–,> 100 µM,–,> 66.3 µM,–,> 100 µM,–,> 100 µM,–,> 100 µM,–,> 100 µM,–,> 100 µM
CC1=C(O)C(=O)C2C(=O)C1C(C)C2c1ccc(Cl)cc1 (stereo not drawn),–,> 100 µM,–,> 100 µM,–,> 100 µM,–,> 100 µM,–,> 100 µM,–,> 100 µM,–,> 100 µM,–,> 100 µM,–,> 100 µM,–,> 100 µM
OCc1ccc(-c2nn(Cc3ccccc3)c3ccccc23)o1,24 µM and 4.69 µM,> 81.6 µM,18.9 µM and 22.9 µM,72.7 µM and 58.9 µM,15.5 µM and 14.8 µM,36.6 µM and 28 µM,15.6 µM and 19 µM,40.5 µM and 58.3 µM,10.4 µM and 12.2 µM,38.9 µM and 38.1 µM,24.3 µM and 21.1 µM,76.3 µM and 55.5 µM,–,62.2 µM and 37.4 µM,16.3 µM and 20.7 µM,44.7 µM and 57 µM,12 µM and 4.48 µM,45.2 µM and 39.6 µM,0.52 µM and 3.41 µM,16.4 µM and > 44.4 µM
CC/C=C\C/C=C\C/C=C\CCCCCCCC(=O)OCC,–,> 100 µM,–,> 100 µM,–,> 100 µM,–,> 100 µM,–,> 100 µM,–,> 100 µM,–,> 100 µM,–,> 100 µM,–,> 100 µM,–,> 100 µM
Cc1nc2sc(C(=O)Nc3ccccc3)c(N)c2cc1C(=O)/C=C/c1ccccc1,1.51 µM,3.01 µM,2.26 µM,6.48 µM,1.77 µM,3.28 µM,2.03 µM,4.83 µM,2.07 µM,7.07 µM,2.35 µM,7.71 µM,2.91 µM,76.1 µM,3.03 µM,11.8 µM,1.38 µM,11.7 µM,1.64 µM,3.45 µM
CN(C)CCCN1CCc2c([nH]c3ccccc23)C1c1cccnc1 (stereo not drawn),–,> 100 µM,–,> 100 µM,–,> 100 µM,–,> 100 µM,–,> 100 µM,–,> 100 µM,–,> 100 µM,–,> 100 µM,–,> 100 µM,–,> 100 µM
CC1C(=O)C(C)C(c2ccccc2)N(N=O)C1c1ccccc1 (stereo not drawn),–,359 µM,> 1000 µM,> 1000 µM,> 1000 µM,> 1000 µM,–,> 1000 µM,107 µM,78.4 µM and 264 µM,–,> 516 µM,–,> 1000 µM,353 µM,> 946 µM,–,> 1000 µM,–,> 655 µM
Cc1cc(=O)oc2cc3c(cc12)Oc1ccccc1O3,–,> 100 µM,–,> 10 µM,–,> 10 µM,–,> 10 µM,–,> 100 µM,–,> 100 µM,–,> 100 µM,–,> 100 µM,–,> 100 µM,–,> 100 µM
COc1cccc(C2c3cc4c(cc3OC(O)(CO)C2C(=O)O)OCO4)c1 (stereo not drawn) (tested in a mixture with another compound),–,> 100 µM,–,> 100 µM,–,> 100 µM,–,75.4 µM,–,79.9 µM,–,> 100 µM,–,> 100 µM,–,> 100 µM,–,> 100 µM,–,> 100 µM
C[C@@H]1CN(CC(=O)N2CC(C)(C)c3nc(CO)c(Cc4ccc(F)cc4)cc32)[C@@H](CN2CCOC[C@H]2C)CN1,47.4 µM,> 100 µM,96.7 µM,> 100 µM,17.1 µM,32.4 µM,26.6 µM,76.2 µM,3.79 µM,19.7 µM,16 µM,31.1 µM,24.4 µM,77.9 µM,32.1 µM,> 100 µM,18.9 µM,73.3 µM,23.6 µM,65.8 µM
COc1cc(Nc2nc(N[C@H]3CCCC[C@@H]3N)nc3cc[nH]c(=O)c23)cc(OC)c1,3.31 µM,18.8 µM,1.08 µM,12.2 µM,1.7 µM,11.5 µM,0.47 µM,3.8 µM,1.06 µM,9.13 µM,2.2 µM,22.5 µM,1.19 µM,11.4 µM,3.17 µM,19.6 µM,0.8 µM,3.91 µM,0.844 µM,19.1 µM
Cn1ccnc1C(=O)/C=C/c1ccc(CC(=O)Nc2ccccc2)cc1,2.67 µM,7.86 µM,6.28 µM,> 25 µM,4.42 µM,8.96 µM,1.57 µM,9.35 µM,6.63 µM,> 25 µM,5.93 µM,22 µM,4.3 µM,> 25 µM,6.44 µM,> 25 µM,1.16 µM,18.9 µM,4.13 µM,9.95 µM
Cc1cc(C(C#N)c2ccc(Cl)cc2)c(Cl)cc1NC(=O)c1cc(I)cc(I)c1O (stereo not drawn),12.6 µM and 16.6 µM,25.1 µM and 34.7 µM,6.71 µM and 13.2 µM,31.1 µM and 33.7 µM,4.08 µM and 10.8 µM,15.4 µM and 24 µM,4.34 µM and 22.1 µM,15.9 µM and 48.9 µM,1.47 µM,4.65 µM,4.93 µM and 10.4 µM,20.2 µM and 27.5 µM,4.74 µM and 22.6 µM,19.3 µM and 53.9 µM,6.02 µM and 21.4 µM,> 100 µM and 52.1 µM,5.97 µM and 9.04 µM,34.5 µM and > 100 µM,2.96 µM and 8.79 µM,11.5 µM and 23.8 µM
Cc1cccc(C(C)C)c1NC(=O)C(=O)CC(=O)c1c(C)n([O-])c2ccccc2[n+]1=O,–,> 100 µM,–,> 100 µM,–,> 100 µM,–,> 100 µM,–,> 100 µM,–,44.1 µM,–,59.8 µM,–,> 100 µM,–,78.5 µM,–,42.4 µM
CCOC(=O)NN1C(=O)C(=P(c2ccccc2)(c2ccccc2)c2ccccc2)C(C(=O)OCC)=C1C,–,> 100 µM,–,> 100 µM,–,> 100 µM,–,> 100 µM,–,> 100 µM,–,> 100 µM,–,> 100 µM,–,> 100 µM,–,> 100 µM,–,> 100 µM
COC(=O)CNC(=O)[C@@H](OC)[C@@H]1Cc2cc3cc(OC4CC(OC5CC(O)C(O)C(C)O5)C(O)C(C)O4)c(C)c(O)c3c(O)c2C(=O)[C@H]1OC1CC(OC2CC(OC3CC(C)(O)C(O)C(C)O3)C(O)C(C)O2)C(O)C(C)O1 (stereo partly drawn),0.26 µM,> 50 µM,0.219 µM,> 50 µM,0.207 µM,1.7 µM,1.08 µM,49.1 µM,0.184 µM,4.59 µM,0.123 µM,1.03 µM,0.198 µM,3.35 µM,0.122 µM,> 50 µM,0.0298 µM,> 50 µM,0.0536 µM,0.26 µM
